{"source": "paper PMC10313368", "about": "(The Journal of Clinical Investigation, 2023)", "key": {"OIR mice": {"tested_on": "OIR mice", "assay": "Retinal NV in the oxygen-induced retinopathy (OIR) mouse model", "assay_type": "in vivo", "conditions": "for OIR NV%: Figure 14D", "source_text": "To characterize the contribution of these other HIF-regulated angiogenic factors to the promotion of ischemia-driven retinal NV in vivo, we used the classic oxygen-induced retinopathy (OIR) model characterized by Smith and colleagues ([35]). In stage 1 of this model, P7 pups are exposed to hyperoxia (75% O2) for 5 consecutive days (P7–P12), resulting in obliteration of the posterior retinal vasculature. In stage 2, pups (at P12) are returned to room air (21% O2). The resulting relative ischemia promotes the expression of angiogenic mediators that stimulate the development of retinal NV (peaking at P17; Figure 2A). […]\n(§1) Animal studies. Eight-week-old pathogen-free female C57BL/6 mice were obtained from The Jackson Laboratory (JAX). Timed pregnant C57BL/6 mice were obtained from Charles River Laboratories. Mice heterozygous for HIF-1α have been previously described (2). Mice heterozygous for HIF-2α (strain number: 003266; common name: EPAS1 KO) were purchased […]\n(§2) OIR mouse model. OIR experiments were performed as previously described (1, 3). Briefly, C57BL/6 mice were placed in 75% O2 on P7. On P12, the mice were returned to room air and were […]\n(§3) (or vehicle) by intravitreal injection. Mice with body weight less than 6 g at P17 were excluded […]\n(§4) from analysis. Data were collected from both males and females and the results were combined since there was no apparent difference between sexes. Representative images for selected time points from a minimum of three independent experiments are shown. Data from 3-8 pups were obtained at each time point. […]\n(§5) Intraperitoneal (IP) injections. […]\n(§6) intraperitoneally using an insulin syringe in OIR pups. […]\n(§7) the peritoneal cavity of neonatal C57BL/6 mice and STZ mice at indicated times, and the retinal vasculature and lysates for WB and qPCR were assessed at P17.\n(§8) Intraocular injections. Intravitreal injections were performed with a PLI-100A Pico-liter Microinjector (Warner Instruments, Harvard Bioscience) using pulled-glass micropipettes. Each micropipette was calibrated to deliver a 1 μl volume on depression of a foot switch. The mice were anesthetized with a ketamine (100 mg/kg) and xylazine (5mg/kg) mixture, and under a dissecting microscope, the sharpened tip of the micropipette was passed through the sclera just posterior to the limbus into the vitreous cavity and the foot switch was depressed, which caused fluid to […]\npenetrate into the vitreous space. […]\nmice for vascular permeability test, retinal vasculature, and lysates for WB and qPCR analysis.\nImmunoﬂuorescence assays. Details for antibodies are provided in Supplemental Table 1.\nImmunofluorescence assays in retinal organoids and mouse retinal tissues were performed as previously described (4). Briefly, mice were sacrificed using CO2 asphyxiation, and the eyes were enucleated and fixed with a solution of 4% paraformaldehyde in PBS (Thermo Scientific™) for two hours at RT, followed by washing with PBS for 10 minutes in a shaker. Retinas were isolated and incubated in 0.5% BSA solution overnight at 4 °C. Retinas were then washed with PBS 3 times for 10 minutes in the shaker and stained with isolectin B4 (Invitrogen; 1:200 dilution in PBS) overnight at 4 °C. After washing 3 times for 10 minutes each in the shaker, the retinas were mounted. Images were captured with Zeiss fluorescent microscope. Eight fields per eye (2 fields per petal) including area of neovascularization were selected and fluorescence intensity was measured by ImageJ software. […]\nThe eyes were enucleated and immediately immersed in 4% (wt/vol) paraformaldehyde for 2 hours at room temperature. Retinas were isolated and wholemounts prepared on clean glass slides and mounted vitreous side up under coverslips with antifade medium (Vectashield; Vector Laboratories, Burlingame, CA). Images were captured by Zeiss fluorescent microscope or confocal microscopy and fluorescence was quantified by the image J software (National Institutes"}, "HIF-1α": {"molecular_target": "HIF-1α (Homo sapiens, UniProt Q16665)", "sequence (Q16665 whole entry)": "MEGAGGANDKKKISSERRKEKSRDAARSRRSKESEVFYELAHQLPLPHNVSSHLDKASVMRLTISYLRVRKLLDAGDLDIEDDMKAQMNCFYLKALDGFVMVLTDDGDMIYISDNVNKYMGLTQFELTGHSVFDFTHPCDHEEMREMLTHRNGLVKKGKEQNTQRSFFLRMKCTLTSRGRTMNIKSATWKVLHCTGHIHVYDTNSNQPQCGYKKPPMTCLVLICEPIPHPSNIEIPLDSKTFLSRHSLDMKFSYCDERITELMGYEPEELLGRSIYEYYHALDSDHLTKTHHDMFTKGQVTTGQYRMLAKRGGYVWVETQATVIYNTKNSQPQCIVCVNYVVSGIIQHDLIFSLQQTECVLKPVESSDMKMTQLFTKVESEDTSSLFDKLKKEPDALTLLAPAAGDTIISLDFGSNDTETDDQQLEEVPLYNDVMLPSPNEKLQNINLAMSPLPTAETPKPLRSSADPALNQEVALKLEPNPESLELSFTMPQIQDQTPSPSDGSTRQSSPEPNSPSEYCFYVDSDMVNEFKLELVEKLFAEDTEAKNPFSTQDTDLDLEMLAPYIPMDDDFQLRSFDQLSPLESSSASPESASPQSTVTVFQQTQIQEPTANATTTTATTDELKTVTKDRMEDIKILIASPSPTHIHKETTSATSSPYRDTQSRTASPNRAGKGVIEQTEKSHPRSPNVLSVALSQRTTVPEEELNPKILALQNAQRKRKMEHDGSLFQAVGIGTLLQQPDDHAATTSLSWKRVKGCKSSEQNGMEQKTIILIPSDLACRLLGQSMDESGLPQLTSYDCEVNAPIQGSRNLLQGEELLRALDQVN", "assay": "Immunoblot of HIF-1α accumulation in MIO-M1 cells cultured in hypoxia", "assay_type": "cell-based", "set-up": "endogenous in cells; host or cells: MIO-M1", "conditions": "MIO-M1, hypoxia 4 hours; MG-132 10 μM, bortezomib 10 μM, bafilomycin 10 nM", "experimental": "(§9) MIO-M1, HUVECs, and ARPE19 cells were cultured in DMEM with 10% (vol/vol) FBS (Quality Biological) and 1% penicillin/streptomycin (Cellgro). A hypoxic chamber (Coy Laboratory Product Inc.; Two Glove Model) with 5% CO2, 94% N2, and 1% O2 gas concentration at 37°C was used to culture hypoxic cells. The control cells were cultured in an incubator maintained at 37°C, with 21% O2 and 5% CO2. […] Aflibercept was obtained from the Johns Hopkins University Pharmacy.\n(§10) Immunoblot assays. Cells, neurosensory retina, and D120 retinal organoid lysates were subjected\n(§11) to 4–15% gradient SDS/PAGE (Invitrogen). Immunoblot (Western blot or WB) assays were\n(§12) performed as previously described (1). […]"}, "HIF-2α": {"molecular_target": "HIF-2α (Homo sapiens, UniProt Q99814)", "sequence (Q99814 whole entry)": "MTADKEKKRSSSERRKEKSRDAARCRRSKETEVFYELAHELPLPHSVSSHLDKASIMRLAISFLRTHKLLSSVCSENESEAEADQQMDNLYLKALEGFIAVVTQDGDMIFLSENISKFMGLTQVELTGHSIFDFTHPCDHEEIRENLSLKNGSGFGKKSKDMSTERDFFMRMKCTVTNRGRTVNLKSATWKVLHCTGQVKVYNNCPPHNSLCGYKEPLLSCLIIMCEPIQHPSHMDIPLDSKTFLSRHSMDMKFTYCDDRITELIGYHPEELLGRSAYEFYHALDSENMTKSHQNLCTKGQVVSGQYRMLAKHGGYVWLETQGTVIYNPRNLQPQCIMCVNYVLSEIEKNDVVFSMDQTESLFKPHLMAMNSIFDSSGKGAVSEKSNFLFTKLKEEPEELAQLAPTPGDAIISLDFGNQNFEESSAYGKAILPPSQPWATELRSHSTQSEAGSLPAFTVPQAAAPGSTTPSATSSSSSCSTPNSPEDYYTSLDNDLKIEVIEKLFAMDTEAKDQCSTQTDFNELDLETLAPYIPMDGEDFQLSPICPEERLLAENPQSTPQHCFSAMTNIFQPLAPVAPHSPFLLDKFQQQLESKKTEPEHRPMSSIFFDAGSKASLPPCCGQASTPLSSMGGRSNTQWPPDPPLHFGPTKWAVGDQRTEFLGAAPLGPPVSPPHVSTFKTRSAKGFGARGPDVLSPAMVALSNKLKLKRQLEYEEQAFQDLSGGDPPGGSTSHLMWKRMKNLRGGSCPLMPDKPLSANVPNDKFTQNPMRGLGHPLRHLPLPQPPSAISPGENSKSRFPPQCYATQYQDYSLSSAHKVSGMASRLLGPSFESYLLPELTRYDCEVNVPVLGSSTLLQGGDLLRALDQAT", "assay": "Immunoblot of HIF-2α accumulation in MIO-M1 cells cultured in hypoxia", "assay_type": "cell-based", "set-up": "endogenous in cells; host or cells: MIO-M1", "conditions": "MIO-M1, hypoxia 4 hours; MG-132", "experimental": "as §9, §10, §11, §12"}, "[1]": {"tested_on": "STZ-induced diabetic mice", "assay": "Vascular permeability by Evans blue tracer method in STZ mice", "assay_type": "in vivo, mouse", "conditions": "digoxin treatment, mice hyperglycemic for 6 months", "experimental": "(§13) STZ-induced diabetes mouse model. 8-to-10 week-old male mice received an IP injection of STZ at 40 mg/kg of body weight in 0.1M of citrate buffer (pH 4.5) for 5 consecutive days. Normal chow and 10% sucrose water were provided during this period. 10% sucrose was discontinued and replaced with regular water on experimental day 6. […]\nIntraocular injections. Intravitreal injections were performed with a PLI-100A Pico-liter Microinjector (Warner Instruments, Harvard Bioscience) using pulled-glass micropipettes. Each micropipette was calibrated to deliver a 1 μl volume on depression of a foot switch. […]\nImages were captured with Zeiss fluorescent microscope. Eight fields per eye (2 fields per petal) including area of neovascularization were selected and fluorescence intensity was measured by ImageJ software. […]\nThe eyes were enucleated and immediately immersed in 4% (wt/vol) paraformaldehyde for 2 hours at room temperature. […] Images were captured by Zeiss fluorescent microscope or confocal microscopy and fluorescence was quantified by the image J software (National Institutes […]\nof Health, Bethesda, MD). Blinded quantification of the number of leaking vessels was performed by manual counting of major leakage from capillaries from retinas of each group. […] Random fields were chosen from retinas where leakages were absent to determine baseline fluorescence that arise from capillaries. […]"}, "[2]": {"tested_on": "HIF-regulated vasoactive mediators", "assay": "mRNA expression of HIF-regulated vasoactive mediators in retina of STZ-induced diabetic mice (qPCR)", "assay_type": "in vivo, mouse", "experimental": "(§14) Reverse transcription and quantitative real-time PCR. Total RNA was isolated from cultured cells or retinas with PureLinkTM RNA Mini Kit (Invitrogen #12183025), and cDNA was prepared with MuLV Reverse Transcriptase (Applied Biosystems). Quantitative real-time PCR was performed with Power SYBR Green PCR Master Mix (Applied Biosystems) and MyiQ Real-Time PCR Detection System (Bio-Rad). Normalization was done using cyclophilin A for mouse tissue and human cell lines. Primers are listed in Supplemental Table 2. […]\nas §13, with “6. Blood glucose was measured on experimental day 28 after 16 hours fasting and mice with blood glucose level > 250 mg/dL were considered” for “6.”\nas §5"}, "[3]": {"tested_on": "HIF-regulated angiogenic mediators", "assay": "mRNA expression of HIF-regulated vasoactive mediators in OIR mouse retina (qPCR)", "assay_type": "in vivo", "experimental": "as §14, §1, §2, §3, §4, §5, §6, §7, §8"}, "[4]": {"conditions": "STZ mice + Digoxin, control about 1, replicates, Figure 4F"}, "[5]": {"conditions": "OIR mice P17, Digoxin i.p. 2mg/kg at P12, NON-OIR about 1, replicates, Figure 2C, 2 mg/kg"}, "[6]": {"conditions": "digoxin 2 mg/kg i.p. at P12, P17"}}, "note": "Several values for one entry are separate records, joined by “and”; a condition that tells them apart may be missing. Identical values can stand only once. Residues, ends and D or L forms follow the SMILES beside them. *: point of attachment. Cbz = O=C(OCc1ccccc1)*"}
{"compound": "aflibercept: FDA-approved anti-VEGF therapy for DME and PDR [reference compound]", "values": [{"measurement": "OIR NV%", "setting": "OIR mice; 100ng i.v., individual values", "result": "10.6252% and 10.4463% and 8.931% and 10.009% and 8.751% and 10.316%"}, {"measurement": "OIR NV%", "setting": "OIR mice; 200ng i.v., individual values", "result": "6.75% and 9.52% and 8.9161% and 6.123% and 11.2235% and 10.084%"}, {"measurement": "OIR NV%", "setting": "OIR mice; 400ng i.v., individual values", "result": "2.501% and 5.995% and 9.1174% and 1.799% and 6.421% and 2.903%"}]}
{"compound": "CC(C)C[C@H](NC(=O)[C@H](Cc1ccccc1)NC(=O)c1cnccn1)B(O)O", "note": "[bortezomib, reference compound]", "values": [{"measurement": "effect of pretreatment on 32-134D inhibition of HIF-1α accumulation", "setting": "HIF-1α", "result": "corroborated"}]}
{"compound": "CC(C)C[C@@H](C=O)NC(=O)[C@H](CC(C)C)NC(=O)[C@H](CC(C)C)NC(=O)OCc1ccccc1", "note": "[MG-132, reference compound] (Cbz-Leu-Leu-Leu-aldehyde)", "values": [{"measurement": "effect of pretreatment on 32-134D inhibition of HIF-2α accumulation", "setting": "HIF-2α", "result": "prevented the ability of 32-134D to block HIF-1α and HIF-2α protein accumulation"}, {"measurement": "effect of pretreatment on 32-134D inhibition of HIF-1α accumulation", "setting": "HIF-1α", "result": "prevented the ability of 32-134D to block HIF-1α and HIF-2α protein accumulation"}]}
{"compound": "CO/C1=C\\C(C)=C\\[C@@H](C)[C@@H](O)[C@@H](C)C/C(C)=C/C=C/[C@H](OC)[C@@H]([C@@H](C)[C@@H](O)[C@H](C)[C@@]2(O)C[C@@H](O)[C@H](C)[C@@H](C(C)C)O2)OC1=O", "note": "[bafilomycin, reference compound]", "values": [{"measurement": "effect of pretreatment on 32-134D inhibition of HIF-1α accumulation", "setting": "HIF-1α", "result": "did not prevent 32-134D from inhibiting HIF-1α accumulation"}]}
{"compound": "C[C@H]1O[C@@H](O[C@H]2[C@@H](O)C[C@H](O[C@H]3[C@@H](O)C[C@H](O[C@H]4CC[C@@]5(C)[C@H](CC[C@@H]6[C@@H]5C[C@@H](O)[C@]5(C)[C@@H](C7=CC(=O)OC7)CC[C@]65O)C4)O[C@@H]3C)O[C@@H]2C)C[C@H](O)[C@@H]1O", "note": "[digoxin, reference compound]", "values": [{"measurement": "vascular permeability in STZ mice (in words)", "setting": "[1]", "result": "decreased vascular permeability"}, {"measurement": "neovascular area (%)", "setting": "OIR mice; OIR mice at P17, single i.p. digoxin 2 mg/kg at P12, individual values, Figure 2A", "result": "0.786% and 0.8973% and 1.637% and 0.108% and 0.7093% and 1.719%"}, {"measurement": "retinal NV in the OIR model (in words)", "setting": "OIR mice; digoxin 2 mg/kg single i.p. at P12, read at P17", "result": "prevented retinal NV"}, {"measurement": "Angptl4 mRNA", "setting": "[2]; [4]", "result": "0.6214 and 1.778 and 1.462"}, {"measurement": "Vegfa mRNA", "setting": "[2]; [4]", "result": "0.79 and 0.8827 and 0.5987"}, {"measurement": "Vegf and Angptl4 mRNA expression in STZ mice (in words)", "setting": "[2]; digoxin treatment", "result": "decrease in Vegf and Angptl4 mRNA expression to levels similar to those in nondiabetic mice"}, {"measurement": "Vegfa mRNA", "setting": "[3]; OIR mice P17, Digoxin i.p. 2mg/kg at P12, NON-OIR about 1, replicates, Figure 2B, 2 mg/kg", "result": "4.361 and 3.814 and 4.0024"}, {"measurement": "Angpt2 mRNA", "setting": "[3]; [5]", "result": "1.359 and 1.263 and 1.386"}, {"measurement": "Angptl4 mRNA", "setting": "[3]; [5]", "result": "1.389 and 1.31 and 1.599"}, {"measurement": "Pdgfb mRNA", "setting": "[3]; [5]", "result": "3.611 and 3.067 and 2.999"}, {"measurement": "Ptprb mRNA", "setting": "[3]; [5]", "result": "0.8633 and 0.7662 and 0.7639"}, {"measurement": "Serpine1 mRNA", "setting": "[3]; [5]", "result": "13.6912 and 13.3012 and 10.8019"}, {"measurement": "expression of VEGF in OIR mice (in words)", "setting": "[3]; [6]", "result": "only modestly inhibiting the expression of VEGF"}, {"measurement": "expression of other vasoactive genes in OIR mice (in words)", "setting": "[3]; [6]", "result": "modest reduction"}]}
